Data: US11597737B2, “Small molecule inhibitors selective for polo-like kinase proteins” (UNIVERSITY OF SOUTH CAROLINA, priority 2016, dated 2023)
Read-outs that look alike come from different tables or passages of the source.

Tests used:
PC3 cells [1] = test: Cell cycle analysis and BrdU pulse labeling in PC3 cells, FIG. 9-11; assay type: cell-based
Protocol: (§1) Analysis of Cell Cycle Progression by FACS
(§2) Serum-Starved Synchronization
(§3) Cells were synchronized in G1 by serum starvation. Briefly, exponentially growing cells were plated overnight. Media (DMEM, 10% FBS, 1% Pen. Strep.) was then removed and replaced with media containing no FBS. Cells were starved for 72 hours then treated for 24 hours with inhibitor. Following treatment, cells were harvested and processed for endpoint experimental analysis.
(§4) Ethanol fixative was removed by centrifugation and the cells were washed with 1 mL ice-cold PBS/1% BSA. Cells were denatured by resuspending in 0.2 mg/mL pepsin in 2N HCl and incubated in 37° C. water bath for 15 minutes. Hydrolysis was then terminated by adding 1 M Invitrogen™ Novex® Tris-Glycine. Cells were then washed with PBS/1% BSA then the primary anti-BrdU antibody (1:100 dilution in TBFP; 0.5% Tween-20, 1% BSA, 1% FBS, PBS) was added and cells were incubated for 25 minutes in the dark, at room temperature. […] Cells were washed once more with PBS/1% BSA and re-suspended in DAPI for 30 minutes before being analyzed by flow cytometry.
The PLK1 PBD-inhibitors were analyzed further by cell cycle analysis in PC3 cells (FIG. 9). […] To quantify the percentage of cells actively proliferating (synthesizing their DNA) or arrested Bromodeoxyuridine (BrdU) pulse labeling was carried out and analyzed by flow cytometry.

[2] = tested on: mutant (C67V) PLK1 RPE cells; test: Cell viability assay, PLK1 C67V mutant RPE cells; assay type: cell-based; conditions: FIG. 6-8
Protocol: (§5) Retinal Pigment Epithelial (RPE) cells were maintained in 1:1 DMEM/Hams F-12 (Invitrogen™, Carlsebad, Calif.; Corning® Cellgro, Manassas, Va.), and supplemented with 10% FBS or Corning® Nu-Serum™ (BD™ Biosciences, Franklin Lakes, N.J.) and 1% penicillin/streptomycin (Invitrogen™) in a humidified incubator and 5% C02 at 37° C.
(§6) Exponentially growing cells were plated in 96-well dishes. Dose response curves were used to treat cells for 72 hours with inhibitors. Following the three-day treatment, cell viability was measured using the MTT (3-(4,5-dimethylthiazol-2-yl)-2,5-diphenyltetrazolium bromide) colorimetric assay. Cells were incubated for 3 hours with MTT allowing viable cells to metabolize the tetrazolium dye to a purple colored solution.

[3] = tested on: KRAS mutant lung cancer (A-549) cells; test: Cell viability assay (MTT), A-549; assay type: cell-based; conditions: 72 hours
Protocol: A-549 lung cancer cells were maintained in Hams F-12 1× with glutamine (Corning® Cellgro, Manassas, Va.), and supplemented with 10% FBS or Corning® Nu-Serum™ (BD™ Biosciences, Franklin Lakes, N.J.) and 1% penicillin/streptomycin (Invitrogen™) in a humidified incubator and 5% C02 at 37° C.
as §6, with “solution. Absorbance measurements (595 nm) were quantified using a DTX 880 plate reader and IC50 values were generated for FLIPs.” for “solution.”

full length PLK1 = molecular target: T1, full length PLK1 (Homo sapiens, UniProt P53350); test: PLK1 kinase inhibition assay (CycLex ELISA); assay type: biochemical; conditions: 7.5 μM ATP, read-out: PLK1 Kinase Inhibitory Act. IC50
T1 construct: This ELISA assay measures the catalytic activity of full length PLK1 for a defined substrate
Excerpt: PLK1 Kinase Inhibition Assay
The CycLex® Polo-like Kinase 1 Assay/Inhibitor Screening Kit was used to measure catalytic inhibition (MBL Life Science, Nagano, Japan). This ELISA assay measures the catalytic activity of full length PLK1 for a defined substrate, which is detected by an anti-phospho-threonine antibody (PPT-07) and peroxidase coupled secondary antibody. […] Peroxidase catalyzes the conversion of the colorless solution to yellow, which was quantified using a DTX 880 plate reader. Absorbance measurements (450 nm) were plotted to calculate activity in each sample, and % inhibition was calculated in the wells relative to activity in the absence of inhibitor.

PLK1 PBD (367-603) = molecular target: T2, PLK1 PBD (367-603) (Homo sapiens, UniProt P53350); test: Fluorescence polarization assay, PLK1 PBD; assay type: binding
T2 construct: PLK1 PBD (367-603); purchased BPS Biosciences Inc. (San Diego, Calif.)
Protocol: (§7) Fluorescence Polarization Assay
(§8) Materials were dissolved in DMSO (10 mM) and diluted from 10 nM to 600 μM (maximum of 6% DMSO tolerance in the assay). […] Incubation was carried out at room temperature for 45 minutes. Fluorescence was measured using a DTX 880 plate reader and Multimode Analysis software (Beckman Coulter, Brea, Calif.). […] Each data point was performed in triplicate for every experiment, and experiments were performed at least three times. An IC50 value for each compound was calculated from linear regression analysis of the plots.

[4] = tested on: HCT-116 (p53−/−) colon cancer cells; test: Cell viability assay (MTT), HCT116 p53-/-; assay type: cell-based; conditions: 72 hours
Protocol: HCT-116 (p53+/+ and −/−) colon cancer cells were maintained DMEM (Invitrogen™, Carlsebad, Calif.) supplemented with 10% FBS or Nu-serum (BD™ Biosciences, Franklin Lakes, N.J.) and 1% penicillin/streptomycin (Invitrogen™) in a humidified incubator and 5% C02 at 37° C.
as §6, with “solution. Absorbance measurements (595 nm) were quantified using a DTX 880 plate reader and IC50 values were generated for FLIPs.” for “solution.”

[5] = tested on: PTEN deficient prostate cancer (PC3) cells; test: Cell viability assay (MTT), PC3; assay type: cell-based; conditions: read-out: PCC-3
Protocol: (§9) PC3 prostate cancer cells were maintained in DMEM (Invitrogen™, Carlsebad, Calif.) supplemented with 10% FBS or Corning® Nu-Serum™ (BD™ Biosciences, Franklin Lakes, N.J.) and 1% penicillin/streptomycin (Invitrogen™) in a humidified incubator and 5% C02 at 37° C.
as §6

[6] = tested on: WT Retinal Pigment Epithelial (RPE) cells; test: Cell viability assay, WT RPE cells; assay type: cell-based; conditions: FIG. 7, FIG. 8
Protocol: as §5, §6

[7] = tested on: HeLa cervical cancer cells; test: Cell viability assay (MTT), HeLa; assay type: cell-based; conditions: read-out: HeLa
Protocol: as §9, with “HeLa cervical” for “PC3 prostate”, “cells were obtained from ATCC (Manassas, Va.). […] Cells” for “cells”, “Corning©” for “Corning®”, “CO2” for “C02”
as §6

PLK3 PBD (335-646) = molecular target: T3, PLK3 PBD (335-646) (Homo sapiens, UniProt Q9H4B4); test: Fluorescence polarization assay, PLK3 PBD; conditions: PLK3 PBD binding
T3 construct: PLK3 PBD (335-646); purchased BPS Biosciences Inc. (San Diego, Calif.)
T3 sequence (Q9H4B4 335-646): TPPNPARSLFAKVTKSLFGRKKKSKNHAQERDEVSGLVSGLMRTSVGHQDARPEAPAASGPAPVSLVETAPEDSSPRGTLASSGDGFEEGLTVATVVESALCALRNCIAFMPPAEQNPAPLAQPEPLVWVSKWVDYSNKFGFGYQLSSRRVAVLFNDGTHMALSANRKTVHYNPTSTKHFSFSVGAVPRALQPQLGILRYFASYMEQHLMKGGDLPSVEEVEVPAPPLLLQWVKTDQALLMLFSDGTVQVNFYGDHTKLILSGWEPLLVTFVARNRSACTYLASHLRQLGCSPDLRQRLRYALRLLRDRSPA
Protocol: as §7, §8

[8] = Cytotoxicity, cell viability and apoptosis data, FIG. 12; assay type: cell-based; conditions: average from various assays
Excerpt: For instance, FIG. 12 presents cytotoxicity, cell viability, and apoptosis data for cells treated with inhibitor SCCP ID No: 6037. […] The data of FIG. 13 relates to SCCP ID No: 5914 and the data of FIG. 14 relates to SCCP ID No: 5915.

[9] = Cell cycle analysis and caspase apoptosis assay; assay type: cell-based
Excerpt: Disclosed small molecule inhibitors can also encourage apoptosis.

PC3 cells [10] = test: Cell cycle analysis after release (DAPI/BrdU FACS), FIG. 3; assay type: cell-based
Protocol: PLK specificity can be useful in therapeutic applications, as well as in research-oriented application.
as §1, §2, §3, §4

[11] = PLK1 PBD binding, fluorescence polarization, read-out: PLK1 IC50

T2 sequence (P53350 367-603): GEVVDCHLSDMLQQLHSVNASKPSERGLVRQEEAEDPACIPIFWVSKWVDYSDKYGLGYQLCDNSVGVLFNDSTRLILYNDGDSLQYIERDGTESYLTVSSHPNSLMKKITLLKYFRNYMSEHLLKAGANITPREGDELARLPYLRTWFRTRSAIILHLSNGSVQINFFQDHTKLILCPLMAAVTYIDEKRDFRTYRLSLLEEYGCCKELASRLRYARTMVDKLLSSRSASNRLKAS
T1 sequence (P53350 whole entry): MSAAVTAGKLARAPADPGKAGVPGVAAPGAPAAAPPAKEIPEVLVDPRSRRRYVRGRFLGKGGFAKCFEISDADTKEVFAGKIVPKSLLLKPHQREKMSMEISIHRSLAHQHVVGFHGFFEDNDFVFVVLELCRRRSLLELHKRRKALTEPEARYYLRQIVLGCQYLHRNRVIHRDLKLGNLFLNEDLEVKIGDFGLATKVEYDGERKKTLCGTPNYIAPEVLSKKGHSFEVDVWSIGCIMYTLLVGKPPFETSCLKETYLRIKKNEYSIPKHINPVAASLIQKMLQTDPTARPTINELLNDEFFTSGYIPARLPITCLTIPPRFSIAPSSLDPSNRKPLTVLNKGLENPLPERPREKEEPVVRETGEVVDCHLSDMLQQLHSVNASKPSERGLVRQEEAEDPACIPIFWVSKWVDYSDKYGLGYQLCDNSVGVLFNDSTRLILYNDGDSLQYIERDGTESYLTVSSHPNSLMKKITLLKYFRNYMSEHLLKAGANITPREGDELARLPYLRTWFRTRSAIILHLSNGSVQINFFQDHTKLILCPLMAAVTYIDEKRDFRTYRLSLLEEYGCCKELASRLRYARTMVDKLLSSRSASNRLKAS

With `CC[C@@H]1C(=O)N(C)c2cnc(Nc3ccc(C(=O)NC4CCN(C)CC4)cc3OC)nc2N1C1CCCC1` [BI-2536, reference compound] the “cells accumulate in G2/M” value (PC3 cells [1]; concentration not given) was about 80% and the “sensitivity of cells containing mutant (C67V) PLK1 (in words)” value [2] was “resistant”.
In the case of `CCCCCCCCc1ccc(C(=O)Nc2cccc(F)c2C(=O)O)cc1` [SCCP ID No. 5932], the IC50 [3] is reported as 2.9 ± 0.5 µM, the IC50 (full length PLK1) is reported as 48.9 µM and the IC50 (PLK1 PBD (367-603); [11]) is reported as 11.1 ± 1.1 µM. For the same compound, the IC50 [4] was 10 ± 2.4 µM, the IC50 ([5]; MTT, 72 hours) was 11.6 ± 1.2 µM and the “sensitivity of cells containing wild type PLK1 (in words)” value [6] was “sensitive”. For the same compound, the “sensitivity of cells containing mutant (C67V) PLK1 (in words)” value [2] was “sensitive”.
In the case of `CCCCCCCCc1ccc(C(=O)Nc2cccc(O)c2C(=O)O)cc1` [SCCP ID No. 5946], the IC50 ([7]; MTT, 72 hours) is reported as 33.6 ± 2.6 µM and the IC50 ([5]; MTT, 72 hours) is reported as 34.2 ± 2.5 µM.
`CCCCCCCCc1ccc(C(=O)NCC(C)C(=O)O)cc1` (stereo not shown) [SCCP ID No. 5976] gave an IC50 (PLK1 PBD (367-603); Table 1, fluorescence polarization, read-out: PLK1 PBD IC50) of 343 to 450 µM.
`CCCCCc1ccc(C(=O)Nc2ccccc2C(=O)O)cc1` [SCCP ID No. 5905] gave an IC50 (PLK1 PBD (367-603); [11]) of 224 ± 4.88 µM.
In the case of `CCCCCCc1ccc(C(=O)Nc2ccc(C)cc2C(=O)O)cc1` [SCCP ID No. 5924], the IC50 (PLK1 PBD (367-603); [11]) is reported as over 600 µM, the “binding to the PLK1 PBD (in words)” value (PLK1 PBD (367-603); fluorescence polarization) is reported as “no binding to PLK1” and the IC50 (PLK3 PBD (335-646)) is reported as 24.5 µM.
In the case of `CCCCCCCCc1ccc(C(=O)Nc2ccc(OC)cc2C(=O)O)cc1` [SCCP ID No. 5935], the IC50 (PLK1 PBD (367-603); [11]) is reported as 5.89 ± 1.25 µM and the “cell cycle phenotype (in words)” value (PC3 cells [1]; 15 μM) is reported as “G1 delay or arrest”.
Compound `CCCCCCCCc1ccc(C(=O)Nc2cccc(C(F)(F)F)c2C(=O)O)cc1` [SCCP ID No. 5945] has an IC50 [3] of 13.3 ± 0.8 µM, an IC50 [4] of 24.9 ± 2 µM and an IC50 ([7]; MTT, 72 hours) of 20.1 ± 3.1 µM. The IC50 ([5]; MTT, 72 hours) was 27.9 ± 2.6 µM.
For `CCCCCCCCCCCCc1ccc(C(=O)Nc2ccccc2C(=O)O)cc1` [SCCP ID No. 6037], the “PLK1 versus PLK3 specificity (in words)” value (PLK1 PBD (367-603); PBD binding) was “selectivity for PLK3”, the IC50 (PLK1 PBD (367-603); [11]) was 5.97 ± 0.38 µM and the IC50 ([7]; Homo sapiens, HeLa, 72 h) was 14 ± 3.5 µM. It also gave a cell viability [8] of 15.6 ± 3.4 µM, a cytotoxicity [8] of 14.8 ± 3.6 µM and an IC50 ([5]; Homo sapiens, PC-3, 72 h) of 9.4 ± 0.8 µM. The “levels of apoptosis (in words)” value [9] was “high levels of apoptosis”, the “G2/M by DAPI” value (PC3 cells [10]; 5 μM) was 7% and the “BrdU+” value (PC3 cells [10]; 5 μM, FIG. 3 2nd panel) was 27%. The “G1 by DAPI” value (PC3 cells [10]; 5 μM, FIG. 3 2nd panel) was 77%, the “S by DAPI” value (PC3 cells [10]; 5 μM, FIG. 3 2nd panel) was 15% and the “G2/M by DAPI” value (PC3 cells [10]; 20 μM, FIG. 3 3rd panel) was 28%. For the same compound, the “cells replicating their DNA (BrdU labeling)” value (PC3 cells [1]; 5 μM) was 75.7%, the “BrdU+” value (PC3 cells [1]; 15 μM) was 1.9% and the “cell cycle phenotype (in words)” value (PC3 cells [1]; 15 μM) was “G1 arrest”. The “cell cycle phenotype (in words)” value (PC3 cells [1]; both the lower (5 μM) and higher (15 μM) dose, FIG. 11) was “G1 accumulation”.
`CCCCCCCCc1ccc(C(=O)Nc2ccccc2C(=O)OCC)cc1` [SCCP ID No. 5914] gave an IC50 (PLK1 PBD (367-603); [11]) of over 600 µM, an IC50 ([7]; Homo sapiens, HeLa, 72 h) of over 100 µM and an IC50 ([5]; Homo sapiens, PC-3, 72 h) of over 100 µM. The “levels of apoptosis (in words)” value [9] was “virtually none”.
In the case of `CCCCc1ccc(C(=O)Nc2ccc(C(=O)O)cc2)cc1` [SCCP ID No. 5880], the IC50 (PLK1 PBD (367-603); [11]) is reported as over 600 µM and the “binding to the PLK1 PBD (in words)” value (PLK1 PBD (367-603); fluorescence polarization) is reported as “did not bind”.
With `CCCCCCc1ccc(C(=O)Nc2ccccc2OP(=O)(O)O)cc1` [SCCP ID No. 5940] the IC50 (PLK1 PBD (367-603); [11]) was over 600 µM and the “binding to the PLK1 PBD (in words)” value (PLK1 PBD (367-603); fluorescence polarization) was “No binding was observed”.
